We go through two molecules from ChEMBL document CHEMBL4699584, “Bioassay-Directed Isolation of Antibacterial Metabolites from an Arthropod-Derived Penicillium chrysogenum” (2020).

Holding throughout (type): functional
In one test the test system is Staphylococcus aureus. Briefly: Antibacterial activity against methicillin-resistant Staphylococcus aureus assessed as reduction in microbial growth by broth microdilution method. Background: In broth dilution the organism is exposed to a series of concentrations in liquid medium.
The subject of a further test is Escherichia coli. Briefly: Antibacterial activity against ESBL producing Escherichia coli assessed as reduction in microbial growth by broth microdilution method.
Another test relates to Enterococcus faecalis. Description: Antibacterial activity against Enterococcus faecalis assessed as reduction in microbial growth by broth microdilution method.

As a reminder, the MIC is the lowest concentration that inhibits growth of the organism. Regarding `C[C@H]1[C@@H]2O[C@@H]2C(=O)[C@]2(C)CC[C@H]3[C@H]4[C@](C)(CC[C@]4(C)C(=O)O)C[C@]132`, the MIC turned out to be 4 µg/mL with Staphylococcus aureus, 32 µg/mL in the test with Escherichia coli and 32 µg/mL with Enterococcus faecalis.
`C[C@H]1C=CC(=O)[C@]2(C)CC[C@H]3[C@@H]4C(CO)(CO)CC[C@]4(C)C[C@]132`: the figures for the minimal inhibitory concentration (MIC) in the test with Staphylococcus aureus, in the test with Escherichia coli and in the test on Enterococcus faecalis were 2 µg/mL, 32 µg/mL and 32 µg/mL, respectively.
